Measured values taken from patent US4843070A, “Substituted thiazetoquinoline-3-carboxylic acids and pharmaceutically acceptable salts thereof” (priority 1986, dated 1989).
≈ marks a conversion by molar mass, not a printed value. Read-outs that look alike come from different tables or passages of the source.

How the values were obtained:
S. epidermidis = experiment: MIC by agar plate dilution method, S. epidermidis; format: cell-based; details: Staphylococcus epidermidis, Test 2, inoculum 10^6, 37° C., 18 hours, read-out: minimum inhibitory concentration (MIC)
Protocol: (§1) Test method: The MIC was measured by an agar plate dilution method in accordance with a standard method of Japan Chemotherapeutic Society (cf. Nippon Kagaku Ryoho Gakkaishi, 29(1), 76-79, 1981). Thus, the organisms incubated at 37° C. for 18 hours using sensitivity test broth (Nissei) was diluted to 10^6 CFU/ml using the same broth. […] As a control, enoxacin and ofloxacin were used in Tests 1 and 2, respectively.
(§2) The numbers of the inoculated bacteria were 10^6 in all cases and the unit of the MIC was micrograms/ml.

P. aeruginosa E-2 [1] = experiment: MIC by agar plate dilution method, P. aeruginosa E-2; format: cell-based; details: Pseudomonas aeruginosa, E2, P. aeruginosa E-2, inoculum 10^6, 37° C., 18 hours, read-out: minimum inhibitory concentration (MIC)
Protocol: as §1, §2

P. aeruginosa E-2 [2] = experiment: Therapeutic effect on infection in mice, P. aeruginosa E-2; format: in vivo, ddY-strain male mice; details: Pseudomonas aeruginosa, E2, po, 168 h
Protocol: (§3) Test Method: Escherichia coli KC-14 and Psudomonas aeruginosa E-2 were suspended in 4% mucin and 0.25 ml of it was inoculated into peritoneal cavity of ddY-strain male mice (body weight about 20 g; 4 weeks age; 10 mice per group). The numbers of the inoculated bacteria were 5.1×10^4 CFU/mouse and 7.5×10^4 CFU/mouse for E. coli and P. aeruginosa, respectively. The drug was administered orally once 2 hours after the infection of the bacteria and, out of the survival rate after one week, the ED50 values were calculated by a Behrens-Karber method. As controls, ofloxacin and enoxacin were used.
(§4) Bacteria used for calculating ED50 were E. coli KC-14 for (1) and P. aeruginosa E-2 for (2). The compounds (1) to (7) of the present invention designated in Table 2 are as follows.

E. coli NIHJ JC-2 = experiment: MIC by agar plate dilution method, E. coli NIHJ JC-2; format: cell-based; details: Escherichia coli, NIHJJC2, E. coli NIHJ JC-2, inoculum 10^6, 37° C., 18 hours, read-out: minimum inhibitory concentration (MIC)
Protocol: as §1, §2

[3] = tested on: infections caused by Gram positive bacteria and Pseudomonas aeruginosa (chronic); details: background statement; cited from earlier work
M. luteus ATCC 9341 = experiment: MIC by agar plate dilution method, M. luteus ATCC 9341; format: cell-based; details: Micrococcus luteus, ATCC9341, inoculum 10^6, 37° C., 18 hours, read-out: minimum inhibitory concentration (MIC)
Protocol: as §1, §2

B. subtilis ATCC 6633 = experiment: MIC by agar plate dilution method, B. subtilis ATCC 6633; format: cell-based; details: Bacillus subtilis, ATCC6633, B. subtilis ATCC 6633, inoculum 10^6, 37° C., 18 hours, read-out: minimum inhibitory concentration (MIC)
Protocol: as §1, §2

S. marcescens IFO 3736 = experiment: MIC by agar plate dilution method, S. marcescens IFO 3736; format: cell-based; details: Serratia marcescens, IFO3736, inoculum 10^6, 37° C., 18 hours, read-out: minimum inhibitory concentration (MIC)
Protocol: as §1, §2

K. pneumoniae K-1966 = experiment: MIC by agar plate dilution method, K. pneumoniae K-1966; format: cell-based; details: Klebsiella pneumoniae, K1966, K. pneumoniae K-1966, inoculum 10^6, 37° C., 18 hours, read-out: minimum inhibitory concentration (MIC)
Protocol: as §1, §2

S. flexneri = experiment: MIC by agar plate dilution method, S. flexneri; format: cell-based; details: Shigella flexneri, 18 hours, read-out: minimum inhibitory concentration (MIC)
Protocol: as §1, §2

E. coli KC-14 [4] = experiment: Therapeutic effect on infection in mice, E. coli KC-14; format: in vivo, ddY-strain male mice; details: Escherichia coli, KC14, po, 168 h
Protocol: as §3, §4

S. aureus 209-P JC = experiment: MIC by agar plate dilution method, S. aureus 209-P JC; format: cell-based; details: Staphylococcus aureus, S. aureus 209-P JC, inoculum 10^6, 37° C., 18 hours, read-out: minimum inhibitory concentration (MIC)
Protocol: as §1, §2

Proteus mirabilis 181 = experiment: MIC by agar plate dilution method, Proteus mirabilis 181; format: cell-based; details: Test 2; Proteus mirabilis 181; inoculum 10^6; 37° C., 18 hours; read-out: minimum inhibitory concentration (MIC)
Protocol: as §1, §2

A. calcoaceticus 54 = experiment: MIC by agar plate dilution method, A. calcoaceticus 54; format: cell-based; details: Acinetobacter calcoaceticus; Test 1; A. calcoaceticus 54; inoculum 10^6; 37° C., 18 hours; read-out: minimum inhibitory concentration (MIC)
Protocol: as §1, §2

S. aureus Smith = experiment: MIC by agar plate dilution method, S. aureus Smith; format: cell-based; details: Staphylococcus aureus; Test 1; S. aureus Smith; inoculum 10^6; 37° C., 18 hours; read-out: minimum inhibitory concentration (MIC)
Protocol: as §1, §2

E. cloacae No. 1 = experiment: MIC by agar plate dilution method, E. cloacae No. 1; format: cell-based; details: Enterobacter cloacae; Test 1; E. cloacae No. 1; inoculum 10^6; 37° C., 18 hours; read-out: minimum inhibitory concentration (MIC)
Protocol: as §1, §2

P. vulgaris HX-19 = experiment: MIC by agar plate dilution method, P. vulgaris HX-19; format: cell-based; details: Proteus vulgaris, HX19, Test 1, inoculum 10^6, 37° C., 18 hours, read-out: minimum inhibitory concentration (MIC)
Protocol: as §1, §2

E. coli KC-14 [5] = experiment: MIC by agar plate dilution method, E. coli KC-14; format: cell-based; details: Escherichia coli, KC14; Test 1; E. coli KC-14; inoculum 10^6; 37° C., 18 hours; read-out: minimum inhibitory concentration (MIC)
Protocol: as §1, §2

in vivo = details: mouse, oral administration, ddY-strain male mice, 2 weeks
From the text: The result of oral administration to ddY-strain male mice (7 weeks age; body weight ca. 35 g; 3 mice per group) for 2 weeks was given.

[6] = P. aeruginosa E-2, 7.5×10^4 CFU/mouse i.p., drug orally once 2 hours after infection, survival after one week, read-out: ED50
[7] = E. coli KC-14, 5.1×10^4 CFU/mouse i.p., drug orally once 2 hours after infection, survival after one week, read-out: ED50

`CC1COc2c(N3CCN(C)CC3)c(F)cc3c(=O)c(C(=O)O)cn1c23` (racemic) [Ofloxacin, ofloxacin, reference compound] gave an MIC (S. epidermidis) of 1.56 µg/mL (≈ 4.32 µM), an MIC (P. aeruginosa E-2 [1]; Test 2) of 1.56 µg/mL (≈ 4.32 µM) and an ED50 (P. aeruginosa E-2 [2]; [6]) of 16 mg/kg. The MIC (E. coli NIHJ JC-2; Test 2) was 0.05 µg/mL (≈ 0.138 µM), the “activity against infections caused by Gram positive bacteria and Pseudomonas aeruginosa (chronic)” value [3] was “not active” and the MIC (M. luteus ATCC 9341; Test 2, M. luteus ATTC 9341) was 3.13 µg/mL (≈ 8.66 µM). For the same compound, the MIC (B. subtilis ATCC 6633; Test 2) was 0.2 µg/mL (≈ 0.553 µM), the MIC (S. marcescens IFO 3736; Test 2, S. Marcescens IFO 3736) was 0.39 µg/mL (≈ 1.08 µM) and the MIC (K. pneumoniae K-1966; Test 2) was 0.1 µg/mL (≈ 0.277 µM). The MIC (S. flexneri; Test 2, inoculum 10^6, 37° C.) was 0.1 µg/mL (≈ 0.277 µM), the ED50 (E. coli KC-14 [4]; [7]) was 0.8 mg/kg and the MIC (S. aureus 209-P JC; Test 2) was 0.78 µg/mL (≈ 2.16 µM). For the same compound, the MIC (Proteus mirabilis 181) was 0.1 µg/mL (≈ 0.277 µM).

With `CCn1cc(C(=O)O)c(=O)c2cc(F)c(N3CCNCC3)nc21` [Enoxacin, enoxacin, reference compound] the MIC (P. aeruginosa E-2 [1]; Test 1) was 0.78 µg/mL (≈ 2.44 µM), the ED50 (P. aeruginosa E-2 [2]; [6]) was 13.1 mg/kg and the MIC (E. coli NIHJ JC-2; Test 1) was 0.2 µg/mL (≈ 0.624 µM). For the same compound, the “activity against infections caused by Gram positive bacteria and Pseudomonas aeruginosa (chronic)” value [3] was “not active”, the MIC (M. luteus ATCC 9341; Test 1, M. luteus ATCC 9341) was 25 µg/mL (≈ 78 µM) and the MIC (A. calcoaceticus 54) was 1.56 µg/mL (≈ 4.87 µM). It also gave an MIC (B. subtilis ATCC 6633; Test 1) of 0.2 µg/mL (≈ 0.624 µM), an MIC (S. aureus Smith) of 0.78 µg/mL (≈ 2.44 µM) and an MIC (E. cloacae No. 1) of 0.1 µg/mL (≈ 0.312 µM). For the same compound, the MIC (P. vulgaris HX-19) was 0.05 µg/mL (≈ 0.156 µM), the MIC (S. marcescens IFO 3736; Test 1, S. marcescens IFO 3736) was 0.39 µg/mL (≈ 1.22 µM) and the MIC (K. pneumoniae K-1966; Test 1) was 0.2 µg/mL (≈ 0.624 µM). For the same compound, the MIC (S. flexneri; Test 1, inoculum 10^6, 37° C.) was 0.1 µg/mL (≈ 0.312 µM), the ED50 (E. coli KC-14 [4]; [7]) was 1.8 mg/kg and the MIC (S. aureus 209-P JC; Test 1) was 0.78 µg/mL (≈ 2.44 µM). For the same compound, the MIC (E. coli KC-14 [5]) was 0.1 µg/mL (≈ 0.312 µM).

In the case of `CC1Sc2c(C(=O)O)c(=O)c3cc(F)c(N4CCN(C)CC4)cc3n21` (stereo not drawn) [Table 1 (2), 6-Fluoro-1-methyl-7-(4-methyl-1-piperazinyl)-4-oxo-4H-(1,3)thiazeto(3,2-a)quinoline-3-carboxylic acid], the LD50 at 336 h (in vivo) is reported as ≥ 3000 mg/kg.

For `CC1Sc2c(C(=O)O)c(=O)c3cc(F)c(N4CCN(C)CC4)cc3n21.O=S(=O)(O)O` (stereo not drawn) [Table 1 (5), 6-Fluoro-1-methyl-7-(4-methyl-1-piperazinyl)-4-oxo-4H-(1,3)thiazeto(3,2-a)quinoline-3-carboxylic acid sulfate], the ED50 (P. aeruginosa E-2 [2]) was 4 mg/kg and the ED50 (E. coli KC-14 [4]) was 0.5 mg/kg.

With `CCOC(=O)c1c2n(c3cc(N4CCN(C)C(C)C4)c(F)cc3c1=O)C(C)S2` (stereo not drawn) [Table 2 (3), Ethyl 7-(3,4-dimethyl-1-piperazinyl)-6-fluoro-1-methyl-4-oxo-4H-(1,3)thiazeto(3,2-a)quinoline-3-carboxylate] the LD50 at 336 h (in vivo) was ≥ 3000 mg/kg.

In the case of `CCOC(=O)c1c2n(c3cc(N4CCN(CC(C)=O)CC4)c(F)cc3c1=O)C(C)S2` (stereo not drawn) [Table 2 (5), Ethyl 7-(4-acetonyl-1-piperazinyl)-6-fluoro-1-methyl-4-oxo-4H-(1,3)thiazeto(3,2-a)quinoline-3-carboxylate], the LD50 at 336 h (in vivo) is reported as ≥ 3000 mg/kg.

With `CC(=O)CN1CCN(c2cc3c(cc2F)c(=O)c(C(=O)O)c2n3C(C)S2)CC1` (stereo not drawn) [Table 2 (6), 7-(4-Acetonyl-1-piperazinyl)-6-fluoro-1-methyl-4-oxo-4H-(1,3)thiazeto(3,2-a)quinoline-3-carboxylic acid] the ED50 (P. aeruginosa E-2 [2]; [6]) was 5 mg/kg and the ED50 (E. coli KC-14 [4]; [7]) was 0.6 mg/kg.
